Structures can show the parent of a compound that is named as a salt.
Biological target: IRAK4 (Homo sapiens (Human), UniProt Q9NWZ3)
Test: IRAK4 kinase activity, IMAP fluorescence polarization assay
Assay type: biochemical
Details: 100 μM ATP, 0.5 nM GST tagged IRAK4; read-out: IRAK4 IC50
In short: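 GST-tagged IRAK4 at 0.5 nM phosphorylates 100 nM fluorescent peptide substrate with 100 μM ATP in pH 7.2 Tris buffer containing MgCl2, DTT and Tween 20, 30 min at 25 °C. Reaction stopped with IMAP binding reagent; phosphorylation read as increased fluorescence polarization.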

IRAK4, sequence (Q9NWZ3 whole entry): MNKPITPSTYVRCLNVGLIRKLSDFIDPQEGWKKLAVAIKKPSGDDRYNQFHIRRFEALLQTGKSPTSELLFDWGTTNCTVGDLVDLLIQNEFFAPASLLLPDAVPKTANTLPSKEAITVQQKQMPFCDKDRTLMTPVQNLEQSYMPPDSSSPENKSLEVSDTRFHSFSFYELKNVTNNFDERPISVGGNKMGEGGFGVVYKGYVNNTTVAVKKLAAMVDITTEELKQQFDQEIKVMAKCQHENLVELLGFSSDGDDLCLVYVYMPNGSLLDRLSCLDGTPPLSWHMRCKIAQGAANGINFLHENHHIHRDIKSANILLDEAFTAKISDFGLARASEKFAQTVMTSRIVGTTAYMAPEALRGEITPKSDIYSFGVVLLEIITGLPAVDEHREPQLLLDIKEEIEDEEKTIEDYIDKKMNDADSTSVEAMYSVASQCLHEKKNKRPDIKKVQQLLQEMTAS

| Structure (SMILES) | IC50 [nM] |
| --- | --- |
| CC(C)(O)[C@H]1C[C@@H](Nc2nc(NC3CCC3)[nH]c(=O)c2-c2nc3ccccc3s2)[C@H](O)[C@@H]1O [Example 45, 5-(Benzo[d]thiazol-2-yl)-2-(cyclobutylamino)-6-((1R,2S,3R,4S)-2,3-dihydroxy-4-(2-hydroxypropan-2-yl)cyclopentylamino)pyrimidin-4(3H)-one.HCl] | 65 |
| Cc1cc2sc(-c3c(N[C@@H]4C[C@H](CO)[C@@H](O)[C@H]4O)nc(N4CCOCC4)[nH]c3=O)nc2c(C)n1 [Example 57, 6-(((1R,2S,3R,4R)-2,3-Dihydroxy-4-(hydroxymethyl)cyclopentyl)amino)-5-(4,6-dimethylthiazolo[4,5-c]pyridin-2-yl)-2-morpholinopyrimidin-4(3H)-one.HCl] | 923 |
| O=c1[nH]c(N2CC3(CNC3)C2)nc(N[C@@H]2C[C@H](CO)[C@@H](O)[C@H]2O)c1-c1nc2ccccc2s1 [Example 16, 5-(Benzo[d]thiazol-2-yl)-6-((1R,2S,3R,4R)-2,3-dihydroxy-4-(hydroxymethyl)cyclopentylamino)-2-(2,6-diazaspiro[3.3]heptan-2-yl)pyrimidin-4(3H)-one.HCl] | 6.5 |
| O=c1[nH]c(Nc2ccncc2)nc(N[C@@H]2C[C@H](CO)[C@@H](O)[C@H]2O)c1-c1nc2ccccc2s1 [Example 54, 5-(Benzo[d]thiazol-2-yl)-6-((1R,2S,3R,4R)-2,3-dihydroxy-4-(hydroxymethyl)cyclopentylamino)-2-(pyridin-4-ylamino)pyrimidin-4(3H)-one.HCl] | 654 |
| Cc1cccc2nc(-c3c(N[C@@H]4CCCNC4)nc(N4CCOCC4)[nH]c3=O)sc12 [Example 340, (R)-5-(7-methylbenzo[d]thiazol-2-yl)-2-morpholino-6-(piperidin-3-ylamino)pyrimidin-4(3H)-one] | 580 |
| O=c1[nH]c(N2CCOCC2)nc(N[C@@H]2CCCNC2)c1-c1nc(-c2ccc(F)cc2)cs1 [Example 98, (R)-5-(4-(4-Fluorophenyl)thiazol-2-yl)-2-morpholino-6-(piperidin-3-ylamino)pyrimidin-4(3H)-one.HCl] | 24 |
| C[C@H]1C[C@@H](Nc2nc(N3CCOCC3)[nH]c(=O)c2-c2ccc3ccccc3n2)[C@H](O)[C@@H]1O [Example 46, 6-((1R,2S,3R,4S)-2,3-Dihydroxy-4-methylcyclopentylamino)-2-morpholino-5-(quinolin-2-yl)pyrimidin-4(3H)-one.HCl] | 5 |
| Cc1ccc2sc(-c3c(N[C@@H]4CCCNC4)nc(N4CCOCC4)[nH]c3=O)nc2c1 [Example 341, 5-(5-methyl-1,3-benzothiazol-2-yl)-2-(morpholin-4-yl)-6-[[(3R)-piperidin-3-yl]amino]-3,4-dihydropyrimidin-4-one formic acid] | 50 |
| O=c1[nH]c(NC2CCOCC2)nc(N[C@@H]2C[C@H](CO)[C@@H](O)[C@H]2O)c1-c1nc2ccccc2s1 [Example 8, 5-(Benzo[d]thiazol-2-yl)-6-((1R,2S,3R,4R)-2,3-dihydroxy-4-(hydroxymethyl)cyclopentylamino)-2-(tetrahydro-2H-pyran-4-ylamino)pyrimidin-4(3H)-one.HCl] | 575 |
| O=c1[nH]c(N2CCCC2)nc(N[C@@H]2C[C@H](CO)[C@@H](O)[C@H]2O)c1-c1nc2ccccc2s1 [Example 25, 5-(Benzo[d]thiazol-2-yl)-6-(((1R,2S,3R,4R)-2,3-dihydroxy-4-(hydroxymethyl)cyclopentyl)amino)-2-(pyrrolidin-1-yl)pyrimidin-4(3H)-one.HCl] | 18 |
| O=c1[nH]c(N2CCOCC2)nc(N[C@@H]2CCCNC2)c1-c1ccc2ccccc2n1 [Example 93, (R)-2-Morpholino-6-(piperidin-3-ylamino)-5-(quinolin-2-yl)pyrimidin-4(3H)-one.HCl] | 26 |

Same assay, conditions: 100 μM ATP; read-out: IC50

| Structure (SMILES) | IC50 [nM] |
| --- | --- |
| O=c1[nH]c(N2CCOCC2)nc(NCCN2CCNCC2)c1-c1nc2ccccc2s1 [Example 256, 5-(1,3-benzothiazol-2-yl)-2-(morpholin-4-yl)-6-[[2-(piperazin-1-yl)ethyl]amino]-3,4-dihydropyrimidin-4-one] | 55 |
| O=c1[nH]c(N2CCCC2)nc(N[C@@H]2CCCNC2)c1-c1nc2ccccc2s1 [Example 295] | 11 |
| O=c1[nH]c(N2CCOCC2)nc(NC(CO)CO)c1-c1nc2ccccc2s1 [Example 270, 5-(benzo[d]thiazol-2-yl)-6-(1,3-dihydroxy-propan-2-ylamino)-2-morpholinopyrimidin-4(3H)-one] | 110 |
| O=c1[nH]c(C2CCN(c3cccnc3)CC2)nc(N[C@@H]2CCCNC2)c1-c1nc2ccccc2s1 [Example 245, (R)-5-(benzo[d]thiazol-2-yl)-6-(piperidin-3-ylamino)-2-(1-(pyridin-3-yl)piperidin-4-yl)pyrimidin-4(3H)-one] | 89 |
| O=C(NC1CCN(c2nc(N[C@@H]3CCCNC3)c(-c3nc4ccccc4s3)c(=O)[nH]2)CC1)OCc1ccccc1 [Example 323, Benzyl N-[1-[5-(1,3-benzothiazol-2-yl)-6-oxo-4-[[(3R)-piperidin-3-yl]amino]-1,6-dihydropyrimidin-2-yl]piperidin-4-yl]carbamate trifluoroacetic acid] | 100 |
| CC1CCN(c2nc(N[C@@H]3CCCNC3)c(-c3nc4ccccc4s3)c(=O)[nH]2)CC1 [Example 297, 5-(1,3-benzothiazol-2-yl)-2-(4-methylpiperidin-1-yl)-6-[[(3R)-piperidin-3-yl]amino]-3,4-dihydropyrimidin-4-one] | 69 |
| CC(C)S(=O)(=O)N1CCC(c2nc(N[C@@H]3CCCNC3)c(-c3nc4ccccc4s3)c(=O)[nH]2)CC1 [Example 237, 5-(1,3-benzothiazol-2-yl)-6-[[(3R)-piperidin-3-yl]amino]-2-[1-(propane-2-sulfonyl)piperidin-4-yl]-3,4-dihydropyrimidin-4-one] | 210 |
| NC(=O)C1CCN(c2nc(N[C@@H]3CCCNC3)c(-c3nc4ccccc4s3)c(=O)[nH]2)CC1 [Example 318, 1-[5-(1,3-benzothiazol-2-yl)-6-oxo-4-[[(3R)-piperidin-3-yl]amino]-1,6-dihydropyrimidin-2-yl]piperidine-4-carboxamide hydrochloride] | 74 |
| O=c1[nH]c(N2CCOCC2)nc(NC2CN3CCC2CC3)c1-c1nc2ccccc2s1 (stereo not shown) [Example 208, 5-(benzo[d]thiazol-2-yl)-2-morpholino-6-(quinolidin-3-ylamino)pyrimidin-4(3H)-one] | 50 |
| O=c1[nH]c(C2CCN(CC3CC3)CC2)nc(N[C@@H]2CCCNC2)c1-c1nc2ccccc2s1 [Example 229, 5-(1,3-benzothiazol-2-yl)-2-[1-(cyclo-propylmethyl)piperidin-4-yl]-6-[[(3R)-piperidin-3-yl]amino]-3,4-dihydropyrimidin-4-one] | 340 |
| CNC(=O)N1CCC(c2nc(N[C@@H]3CCCNC3)c(-c3nc4ccccc4s3)c(=O)[nH]2)CC1 [Example 240, (R)-4-[5-(1,3-benzo-thiazol-2-yl)-6-oxo-4-[[(3R)-piperidin-3-yl]amino]-1,6-dihydro-pyrimidin-2-yl]-N-methyl-piperidine-1-carboxamide] | 200 |

Same assay, conditions: 100 μM ATP; read-out: IRAK4 IC50

| Structure (SMILES) | IC50 [nM] |
| --- | --- |
| O=c1[nH]c(N2C[C@H](F)[C@@H](F)C2)nc(N[C@@H]2CCCNC2)c1-c1ccc2ccccc2n1 [Example 175, 2-((3S,4S)-3,4-difluoropyrrolidin-1-yl)-6-((R)-piperidin-3-ylamino)-5-(quinolin-2-yl)pyrimidin-4(3H)-one] | 17 |
| O=c1[nH]c(N2CC3CC2CS(=O)(=O)C3)nc(N[C@@H]2CCCNC2)c1-c1ccc2ccccc2n1 (stereo partly drawn) [Example 174, 2-(3,3-dioxido-3-thia-6-azabicyclo[3.2.1]octan-6-yl)-6-((R)-piperidin-3-ylamino)-5-(quinolin-2-yl)pyrimidin-4(3H)-one] | 139 |
| CS(=O)(=O)c1ccc(N2CCN(c3nc(N[C@@H]4CCCNC4)c(-c4nc5ccccc5s4)c(=O)[nH]3)CC2)c(Cl)c1 [Example 147, (R)-5-(benzo[d]thiazol-2-yl)-2-(4-(2-chloro-4-(methylsulfonyl)phenyl)piperazin-1-yl)-6-(piperidin-3-ylamino)pyrimidin-4(3H)-one] | 11 |
| O=c1[nH]c(N2CCN(c3nncs3)CC2)nc(N[C@@H]2CCCNC2)c1-c1nc2ccccc2s1 [Example 163, (R)-2-(4-(1,3,4-thiadiazol-2-yl)piperazin-1-yl)-5-(benzo[d]thiazol-2-yl)-6-(piperidin-3-ylamino)pyrimidin-4(3H)-one] | 20 |
| C[C@H]1COCCN1c1nc(N[C@@H]2CCCNC2)c(-c2nc3ccccc3s2)c(=O)[nH]1 [Example 128] | 431 |
| O=c1[nH]c(N2CCN(c3ncccn3)CC2)nc(N[C@@H]2CCCNC2)c1-c1nc2ccccc2s1 [Example 136, (R)-5-(benzo[d]thiazol-2-yl)-6-(piperidin-3-ylamino)-2-(4-(pyrimidin-2-yl)piperazin-1-yl)pyrimidin-4(3H)-one] | 10 |
| O=c1[nH]c(N2CC3CC2CN3)nc(N[C@@H]2CCCNC2)c1-c1ccc2ccccc2n1 (stereo partly drawn) [Example 194, 2-(2,5-diazabicyclo[2.2.1]heptan-2-yl)-6-((R)-piperidin-3-ylamino)-5-(quinolin-2-yl)pyrimidin-4(3H)-one] | 169 |

Same assay, conditions: unit inferred; 100 μM ATP; read-out: IRAK4 IC50

| Structure (SMILES) | IC50 [nM] |
| --- | --- |
| O=C1NC2(CCN(c3nc(N[C@@H]4C[C@H](CO)[C@@H](O)[C@H]4O)c(-c4nc5ccccc5s4)c(=O)[nH]3)CC2)CO1 [Example 81, 8-(5-(benzo[d]thiazol-2-yl)-4-((1R,2S,3R,4R)-2,3-dihydroxy-4-(hydroxymethyl)cyclopentylamino)-6-oxo-1,6-dihydropyrimidin-2-yl)-3-oxa-1,8-diazaspiro[4.5]decan-2-one] | 196 |
| O=c1[nH]c(N2CCC(c3ccccn3)C2)nc(N[C@@H]2C[C@H](CO)[C@@H](O)[C@H]2O)c1-c1nc2ccccc2s1 (stereo partly drawn) [Example 82, 5-(benzo[d]thiazol-2-yl)-6-((1R,2S,3R,4R)-2,3-dihydroxy-4-(hydroxymethyl)cyclopentylamino)-2-(3-(pyridin-2-yl)pyrrolidin-1-yl)pyrimidin-4(3H)-one] | 197 |
